Experimental data from PubChem BioAssay AID256 (DTP/NCI, 2004).
“And” between values parts separate entries of the source, which are not always exact repeats. Equal entries are not always repeated. Toxic doses and inconclusive results are not listed.

Test system: CD2F1 mice, L1210 leukemia ip, survival T/C
Assay: NCI In Vivo Anticancer Drug Screen. Data for tumor model L1210 Leukemia (intraperitoneal) in CD2F1 (CDF1) mice
Conditions: higher = longer survival
Procedure, shortened: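 In this screen, transplantable tumors were grown in mice given either the compound or its vehicle. Results were expressed as the treated measurement relative to the control measurement.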

`NC(=O)c1csc(C2OC(CO)C(O)C2O)n1` (stereo not drawn) was tested, and the T/C (endpoint: mean survival time, dose: 12.5 mg/kg/injection, schedule: Q01DX005 (ip), vehicle: water) was 111 % of control, the T/C (endpoint: mean survival time, dose: 25.0 mg/kg/injection, schedule: Q01DX005 (ip), vehicle: water) was 120 % of control and the T/C (endpoint: mean survival time, dose: 25.0 mg/kg/injection, schedule: Q01DX009 (ip), vehicle: water) was 158 % of control and 162 % of control. For the same compound, the T/C (endpoint: mean survival time, dose: 50.0 mg/kg/injection, schedule: Q01DX005 (ip), vehicle: water) was 152 % of control, the T/C (endpoint: mean survival time, dose: 50.0 mg/kg/injection, schedule: Q01DX009 (ip), vehicle: water) was 166 % of control and 167 % of control and the T/C (endpoint: mean survival time, dose: 100.0 mg/kg/injection, schedule: Q01DX009 (ip), vehicle: saline) was 183 % of control. The T/C (endpoint: mean survival time, dose: 100.0 mg/kg/injection, schedule: Q01DX009 (ip), vehicle: water) was 182 % of control, the T/C (endpoint: mean survival time, dose: 150.0 mg/kg/injection, schedule: Q01DX005 (ip), vehicle: water) was 150 % of control and the T/C (endpoint: mean survival time, dose: 200.0 mg/kg/injection, schedule: Q01DX009 (ip), vehicle: saline) was 182 % of control. The T/C (endpoint: mean survival time, dose: 200.0 mg/kg/injection, schedule: Q01DX009 (ip), vehicle: water) was 203 % of control and 219 % of control, the T/C (endpoint: mean survival time, dose: 300.0 mg/kg/injection, schedule: Q01DX005 (ip), vehicle: water) was 155 % of control and the T/C (endpoint: mean survival time, dose: 400.0 mg/kg/injection, schedule: Q01DX005 (ip), vehicle: water) was 191 % of control and 192 % of control and 216 % of control. For the same compound, the T/C (endpoint: mean survival time, dose: 400.0 mg/kg/injection, schedule: Q01DX009 (ip), vehicle: saline) was 224 % of control, the T/C (endpoint: mean survival time, dose: 400.0 mg/kg/injection, schedule: Q01DX009 (ip), vehicle: water) was 200 % of control and 229 % of control and the T/C (endpoint: mean survival time, dose: 600.0 mg/kg/injection, schedule: Q01DX009 (ip), vehicle: saline) was 230 % of control. The T/C (endpoint: mean survival time, dose: 800.0 mg/kg/injection, schedule: Q01DX005 (ip), vehicle: water) was 206 % of control and 247 % of control, the T/C (endpoint: mean survival time, dose: 800.0 mg/kg/injection, schedule: Q01DX009 (ip), vehicle: saline) was 171 % of control and the T/C (endpoint: mean survival time, dose: 800.0 mg/kg/injection, schedule: Q01DX009 (ip), vehicle: water) was 185 % of control. The T/C (endpoint: median survival time, dose: 4.0 mg/kg/injection, schedule: Q03HX024 (ip), vehicle: water) was 150 % of control, the T/C (endpoint: median survival time, dose: 8.0 mg/kg/injection, schedule: Q03HX024 (ip), vehicle: water) was 186 % of control and the T/C (endpoint: median survival time, dose: 16.0 mg/kg/injection, schedule: Q03HX024 (ip), vehicle: water) was 168 % of control. The T/C (endpoint: median survival time, dose: 16.0 mg/kg/injection, schedule: Q04DX003 (ip), vehicle: water) was 101 % of control, the T/C (endpoint: median survival time, dose: 16.0 mg/kg/injection, schedule: Q#A X018 (ip), vehicle: water) was 174 % of control and the T/C (endpoint: median survival time, dose: 22.25 mg/kg/injection, schedule: Q01DX005 (ip), vehicle: water) was 97 % of control. For the same compound, the T/C (endpoint: median survival time, dose: 23.44 mg/kg/injection, schedule: Q01DX005 (ip), vehicle: water) was 98 % of control, the T/C (endpoint: median survival time, dose: 32.0 mg/kg/injection, schedule: Q01DX001 (iv), vehicle: water) was 117 % of control and the T/C (endpoint: median survival time, dose: 32.0 mg/kg/injection, schedule: Q01DX005 (ip), vehicle: water) was 152 % of control. For the same compound, the T/C (endpoint: median survival time, dose: 32.0 mg/kg/injection, schedule: Q01DX009 (ip), vehicle: water) was 159 % of control and 176 % of control, the T/C (endpoint: median survival time, dose: 32.0 mg/kg/injection, schedule: Q01DX009 (oral), vehicle: water) was 163 % of control and the T/C (endpoint: median survival time, dose: 32.0 mg/kg/injection, schedule: Q03HX024 (ip), vehicle: water) was 184 % of control. For the same compound, the T/C (endpoint: median survival time, dose: 32.0 mg/kg/injection, schedule: Q04DX003 (ip), vehicle: water) was 109 % of control, the T/C (endpoint: median survival time, dose: 32.0 mg/kg/injection, schedule: Q#A X018 (ip), vehicle: water) was 195 % of control and the T/C (endpoint: median survival time, dose: 44.5 mg/kg/injection, schedule: Q01DX005 (ip), vehicle: water) was 102 % of control. The T/C (endpoint: median survival time, dose: 64.0 mg/kg/injection, schedule: Q01DX001 (ip), vehicle: water) was 110 % of control, the T/C (endpoint: median survival time, dose: 64.0 mg/kg/injection, schedule: Q01DX001 (iv), vehicle: water) was 120 % of control and the T/C (endpoint: median survival time, dose: 64.0 mg/kg/injection, schedule: Q01DX001 (oral), vehicle: water) was 111 % of control. The T/C (endpoint: median survival time, dose: 64.0 mg/kg/injection, schedule: Q01DX005 (ip), vehicle: water) was 163 % of control, the T/C (endpoint: median survival time, dose: 64.0 mg/kg/injection, schedule: Q01DX005 (iv), vehicle: water) was 151 % of control and the T/C (endpoint: median survival time, dose: 64.0 mg/kg/injection, schedule: Q01DX005 (oral), vehicle: water) was 150 % of control. The T/C (endpoint: median survival time, dose: 64.0 mg/kg/injection, schedule: Q01DX009 (oral), vehicle: water) was 188 % of control, the T/C (endpoint: median survival time, dose: 64.0 mg/kg/injection, schedule: Q03HX024 (ip), vehicle: water) was 219 % of control and the T/C (endpoint: median survival time, dose: 64.0 mg/kg/injection, schedule: Q04DX003 (ip), vehicle: water) was 114 % of control. The T/C (endpoint: median survival time, dose: 64.0 mg/kg/injection, schedule: Q#A X018 (ip), vehicle: water) was 210 % of control, the T/C (endpoint: median survival time, dose: 89.0 mg/kg/injection, schedule: Q01DX005 (ip), vehicle: water) was 94 % of control and the T/C (endpoint: median survival time, dose: 93.75 mg/kg/injection, schedule: Q01DX005 (ip), vehicle: water) was 101 % of control. For the same compound, the T/C (endpoint: median survival time, dose: 125.0 mg/kg/injection, schedule: Q01DX005 (ip), vehicle: water) was 168 % of control, the T/C (endpoint: median survival time, dose: 128.0 mg/kg/injection, schedule: Q01DX001 (ip), vehicle: water) was 114 % of control and the T/C (endpoint: median survival time, dose: 128.0 mg/kg/injection, schedule: Q01DX001 (oral), vehicle: water) was 123 % of control. The T/C (endpoint: median survival time, dose: 128.0 mg/kg/injection, schedule: Q01DX005 (ip), vehicle: water) was 164 % of control, the T/C (endpoint: median survival time, dose: 128.0 mg/kg/injection, schedule: Q01DX005 (iv), vehicle: water) was 166 % of control and the T/C (endpoint: median survival time, dose: 128.0 mg/kg/injection, schedule: Q01DX005 (oral), vehicle: water) was 163 % of control. The T/C (endpoint: median survival time, dose: 128.0 mg/kg/injection, schedule: Q01DX009 (oral), vehicle: water) was 217 % of control, the T/C (endpoint: median survival time, dose: 128.0 mg/kg/injection, schedule: Q03HX024 (ip), vehicle: water) was 231 % of control and the T/C (endpoint: median survival time, dose: 128.0 mg/kg/injection, schedule: Q04DX003 (ip), vehicle: water) was 118 % of control. The T/C (endpoint: median survival time, dose: 128.0 mg/kg/injection, schedule: Q#A X018 (ip), vehicle: water) was 240 % of control, the T/C (endpoint: median survival time, dose: 150.0 mg/kg/injection, schedule: Q01DX005 (ip), vehicle: water) was 157 % of control and the T/C (endpoint: median survival time, dose: 178.0 mg/kg/injection, schedule: Q01DX005 (ip), vehicle: water) was 98 % of control. For the same compound, the T/C (endpoint: median survival time, dose: 250.0 mg/kg/injection, schedule: Q01DX005 (ip), vehicle: water) was 158 % of control and 179 % of control, the T/C (endpoint: median survival time, dose: 256.0 mg/kg/injection, schedule: Q01DX001 (ip), vehicle: water) was 117 % of control and the T/C (endpoint: median survival time, dose: 256.0 mg/kg/injection, schedule: Q01DX001 (oral), vehicle: water) was 122 % of control. The T/C (endpoint: median survival time, dose: 256.0 mg/kg/injection, schedule: Q01DX005 (ip), vehicle: water) was 183 % of control, the T/C (endpoint: median survival time, dose: 256.0 mg/kg/injection, schedule: Q01DX005 (iv), vehicle: water) was 190 % of control and the T/C (endpoint: median survival time, dose: 256.0 mg/kg/injection, schedule: Q01DX005 (oral), vehicle: water) was 188 % of control. For the same compound, the T/C (endpoint: median survival time, dose: 256.0 mg/kg/injection, schedule: Q01DX009 (oral), vehicle: water) was 227 % of control, the T/C (endpoint: median survival time, dose: 256.0 mg/kg/injection, schedule: Q03HX024 (ip), vehicle: water) was 246 % of control and the T/C (endpoint: median survival time, dose: 256.0 mg/kg/injection, schedule: Q#A X018 (ip), vehicle: water) was 252 % of control. The T/C (endpoint: median survival time, dose: 300.0 mg/kg/injection, schedule: Q01DX005 (ip), vehicle: water) was 166 % of control, the T/C (endpoint: median survival time, dose: 356.0 mg/kg/injection, schedule: Q01DX005 (ip), vehicle: water) was 101 % of control and the T/C (endpoint: median survival time, dose: 375.0 mg/kg/injection, schedule: Q01DX005 (ip), vehicle: water) was 92 % of control. For the same compound, the T/C (endpoint: median survival time, dose: 500.0 mg/kg/injection, schedule: Q01DX005 (ip), vehicle: water) was 175 % of control and 201 % of control, the T/C (endpoint: median survival time, dose: 512.0 mg/kg/injection, schedule: Q01DX005 (ip), vehicle: water) was 190 % of control and the T/C (endpoint: median survival time, dose: 512.0 mg/kg/injection, schedule: Q01DX005 (iv), vehicle: water) was 217 % of control. The T/C (endpoint: median survival time, dose: 512.0 mg/kg/injection, schedule: Q01DX005 (oral), vehicle: water) was 195 % of control, the T/C (endpoint: median survival time, dose: 512.0 mg/kg/injection, schedule: Q01DX009 (oral), vehicle: water) was 154 % of control and the T/C (endpoint: median survival time, dose: 512.0 mg/kg/injection, schedule: Q03HX024 (ip), vehicle: water) was 284 % of control. For the same compound, the T/C (endpoint: median survival time, dose: 512.0 mg/kg/injection, schedule: Q04DX003 (ip), vehicle: water) was 180 % of control, the T/C (endpoint: median survival time, dose: 512.0 mg/kg/injection, schedule: Q#A X018 (ip), vehicle: water) was 269 % of control and the T/C (endpoint: median survival time, dose: 600.0 mg/kg/injection, schedule: Q01DX005 (ip), vehicle: water) was 188 % of control. The T/C (endpoint: median survival time, dose: 1000.0 mg/kg/injection, schedule: Q01DX005 (ip), vehicle: water) was 188 % of control and 191 % of control, the T/C (endpoint: median survival time, dose: 1024.0 mg/kg/injection, schedule: Q01DX005 (ip), vehicle: water) was 205 % of control and the T/C (endpoint: median survival time, dose: 1024.0 mg/kg/injection, schedule: Q01DX005 (iv), vehicle: water) was 226 % of control. The T/C (endpoint: median survival time, dose: 1024.0 mg/kg/injection, schedule: Q01DX005 (oral), vehicle: water) was 213 % of control, the T/C (endpoint: median survival time, dose: 1024.0 mg/kg/injection, schedule: Q01DX009 (oral), vehicle: water) was 110 % of control and the T/C (endpoint: median survival time, dose: 1024.0 mg/kg/injection, schedule: Q04DX003 (ip), vehicle: water) was 191 % of control. For the same compound, the T/C (endpoint: median survival time, dose: 2048.0 mg/kg/injection, schedule: Q01DX001 (oral), vehicle: water) was 155 % of control, the T/C (endpoint: median survival time, dose: 2048.0 mg/kg/injection, schedule: Q01DX005 (oral), vehicle: water) was 98 % of control and the T/C (endpoint: median survival time, dose: 2048.0 mg/kg/injection, schedule: Q01DX009 (ip), vehicle: water) was 109 % of control. The T/C (endpoint: median survival time, dose: 2048.0 mg/kg/injection, schedule: Q04DX003 (ip), vehicle: water) was 223 % of control.
